Results taken from patent US8575145B2, “Triazolopyridine compounds as PIM kinase inhibitors” (Array BioPharma Inc., priority 2008, dated 2013).

Key:
[1] = system: PC3 (Androgen independent prostate cancer); experiment: Cellular Proliferation Assay, cell line A; assay type: cell-based; settings: PC3, 72 hours, CelltiterBlue; read-out: Cell Line A antiproliferative IC50
Experimental: (§1) The assay for determination of the antiproliferative activity of multiple Pim inhibitors in the JAK2-driven cell lines was conducted as follows. Cells were plated out to 96-well plates at an initial density of 10,000 cells/well in 95 pt. Compounds were prepared at […] in DMSO by conducting 3-fold serial dilutions to give a 10-point dosing curve having a high dose of 1000 μM. Aliquots (5 μt) of these dilutions were then transferred to the appropriate wells of the 96-well plates containing cells to yield a final DMSO concentration of 0.5%. The cells were then incubated with compound for 72 hours at 37° C., 5% CO2. CelltiterBlue reagent (Promega, Catalog #: G8080) was then added (20 μL/well) and incubated at 37° C., 5% CO2 for 1-8 hours depending on the cell line being analyzed. The plate was then quantified employing a fluorescence plate reader (Model: Gemini [Molecular Devices]; Settings: 560 nm (Ex)/590 nm (Em) 570 nm (cut-off) [CellTiter Blue Assay].
(§2) The values for each well were then converted to a percent of untreated control (POC). These POC values were then plotted as a function of compound concentration. A 4-parameter curve-fit analysis was performed for each compound dilution and an IC50 value was calculated from this curve.
(§3) Cell lines • A: PC3 (Androgen independent prostate cancer) • B: K562 (Ph+chronic myelogenous leukemia) • C: MV4-11 (Acute myelogenous leukemia) • D: BxPC3 (Pancreatic Cancer) • E: HepG2 (Hepatocellular Carcinoma) • F: BaF3 (Mouse pro-B-cell line) • G: BaF3 TEL-JAK2 (Mouse pro-B-cell transformed with TEL-JAK2 fusion) • H: BaF2 BCR-Ab1 (Mouse pro-B-cell transformed with BCR-Ab1 fusion)

[2] = system: K562 (Ph+chronic myelogenous leukemia); experiment: Cellular Proliferation Assay, cell line B; assay type: cell-based; settings: Homo sapiens; K562, 72 hours, CelltiterBlue; read-out: Cell Line B antiproliferative IC50
Experimental: as §1, §2, §3

[3] = system: BxPC3 (Pancreatic Cancer); experiment: Cellular Proliferation Assay, cell line D; assay type: cell-based; settings: Homo sapiens, BXPC-3; BxPC3, 72 hours, CelltiterBlue; read-out: Cell Line D antiproliferative IC50
Experimental: as §1, §2, §3

[4] = system: HepG2 (Hepatocellular Carcinoma); experiment: Cellular Proliferation Assay, cell line E; assay type: cell-based; settings: Homo sapiens; HepG2, 72 hours, CelltiterBlue; read-out: Cell Line E antiproliferative IC50
Experimental: as §1, §2, §3

[5] = system: BaF3 (Mouse pro-B-cell line); experiment: Cellular Proliferation Assay, cell line F; assay type: cell-based; settings: BaF3, 72 hours, CelltiterBlue, read-out: Cell Line F antiproliferative IC50
Experimental: as §1, §2, §3

[6] = system: BaF3 TEL-JAK2 (Mouse pro-B-cell transformed with TEL-JAK2 fusion); experiment: Cellular Proliferation Assay, cell line G; assay type: cell-based; settings: BaF3 TEL-JAK2, 72 hours, CelltiterBlue, read-out: Cell Line G antiproliferative IC50
Experimental: as §1, §2, §3

[7] = system: BaF2 BCR-Ab1 (Mouse pro-B-cell transformed with BCR-Ab1 fusion); experiment: Cellular Proliferation Assay, cell line H; assay type: cell-based; settings: BaF2 BCR-Ab1, 72 hours, CelltiterBlue, read-out: Cell Line H antiproliferative IC50
Experimental: as §1, §2, §3

[8] = target: GST-tagged recombinant full-length human PIM-2 (Homo sapiens (Human), UniProt Q9P1W9); experiment: PIM-2 Enzyme Assay; settings: read-out: PIM-2 IC50; 4 μM ATP, […] PIM-2
recombinant rat PIM-3 = recombinant rat PIM-3 (Rattus norvegicus (Rat), UniProt O70444); experiment: PIM-3 Enzyme Assay; settings: read-out: PIM-3 IC50; 30 μM ATP, 0.5 nM PIM-3
Experimental: The amount of radiolabeled product is then measured by liquid scintillation counting. The final buffer conditions were as follows: 20 mM K^+MOPS, pH 7.4, 10 mM MgCl2, 0.005% Tween-20, 1 mM DTT. […] Incubations were carried out for 60 min at 22° C. and quenched with 75 μL of 200 mM H3PO4, filtered through a Whatman P81 plate and washed (1×200 μL and 5×100 μL ) with 200 mM H3PO4. Liquid scintillation cocktail (50 μL ) was then added per well, and the plate was counted for 30 s/well using a TopCount NXT.
One-μL aliquots of these were then transferred to the assay mixtures above to give a final concentration of DMSO of 2%. […] For each plate, percent of control (POC) values were calculated for each well. IC50's were estimated from the POC's using a standard 4-parameter logistic model. The IC50 is defined as the concentration of inhibitor at which the POC equals 50 for the fitted curve.

PIM-1 = PIM-1 (Homo sapiens (Human), UniProt P11309); experiment: PIM-1 Enzyme Assay; assay type: biochemical; settings: 35 μM ATP, 0.25 nM PIM-1
In short: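 Radiometric kinase assay in 20 mM K+MOPS pH 7.4, 10 mM MgCl2, 0.005% Tween-20, 1 mM DTT, 2% DMSO final; 60 min at 22° C, stopped with H3PO4, product captured on P81 filter and counted by scintillation. IC50 from 4-parameter logistic fit of percent of control.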

Chain of GST-tagged recombinant full-length human PIM-2 (Q9P1W9 whole entry): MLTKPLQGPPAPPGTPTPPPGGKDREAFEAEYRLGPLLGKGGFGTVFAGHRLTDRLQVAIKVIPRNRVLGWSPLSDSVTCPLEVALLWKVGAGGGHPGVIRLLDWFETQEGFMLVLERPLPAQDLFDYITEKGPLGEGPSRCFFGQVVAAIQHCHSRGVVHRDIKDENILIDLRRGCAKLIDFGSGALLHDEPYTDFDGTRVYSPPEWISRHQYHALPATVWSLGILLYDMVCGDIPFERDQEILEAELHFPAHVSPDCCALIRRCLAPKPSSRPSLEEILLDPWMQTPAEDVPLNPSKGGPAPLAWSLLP
Chain of PIM-1 (P11309 whole entry, species assumed): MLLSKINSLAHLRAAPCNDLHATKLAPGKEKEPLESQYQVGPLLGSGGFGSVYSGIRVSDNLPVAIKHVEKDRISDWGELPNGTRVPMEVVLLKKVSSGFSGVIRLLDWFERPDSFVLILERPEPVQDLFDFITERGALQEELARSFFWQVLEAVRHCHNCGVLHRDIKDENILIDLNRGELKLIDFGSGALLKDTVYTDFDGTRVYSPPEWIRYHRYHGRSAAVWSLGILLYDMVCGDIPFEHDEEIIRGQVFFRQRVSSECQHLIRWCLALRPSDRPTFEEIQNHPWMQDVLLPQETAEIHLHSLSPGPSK

| IC50 [1] [nM] | IC50 [2] [nM] | IC50 [3] [nM] | IC50 [4] [nM] | IC50 [5] [nM] | IC50 [6] [nM] | IC50 [8] [nM] | IC50 (recombinant rat PIM-3) [nM] | IC50 (PIM-1) [nM] | Compound | IC50 [7] [nM] |
| --- | --- | --- | --- | --- | --- | --- | --- | --- | --- | --- |
| < 2000 | < 10000 | < 10000 | < 10000 | < 2000 | < 2000 | 134 | 3 |  | N[C@H]1CC[C@H](Oc2cccc3ccc(-c4nnc5ccccn45)nc23)CC1 [Example 17, (trans)-4-(2-([1,2,4]Triazolo[4,3-a]pyridin-3-yl)quinolin-8-yloxy)cyclohexanamine] | < 2000 |
| < 10000 | > 10000 |  |  | < 2000 | < 2000 | 1110 | 4.4 | 1.6 | c1cc(NC2CCNCC2)c2nc(-c3nnc4ccccn34)ccc2c1 [Example 1, 2-([1,2,4]Triazolo[4,3-a]pyridin-3-yl)-N-(piperidin-4-yl)quinolin-8-amine di-trifloroacetate] | < 10000 |
